The source of these data is ChEMBL document CHEMBL2321733, “[3a,4]-Dihydropyrazolo[1,5a]pyrimidines: Novel, Potent, and Selective Phosphatidylinositol-3-kinase β Inhibitors” (ACS Med Chem Lett, 2013).

Values after ≈ are worked out from the molar mass of the structure shown. A value given as a limit tells only on which side of the number the result lay.

For data set [1], the target named is Phosphatidylinositol 4,5-bisphosphate 3-kinase catalytic subunit alpha isoform (Homo sapiens, UniProt P42336). The data set is described as follows: Inhibition of PI3Kalpha (unknown origin).
Chain of Phosphatidylinositol 4,5-bisphosphate 3-kinase catalytic subunit alpha isoform (P42336 whole entry, canonical isoform): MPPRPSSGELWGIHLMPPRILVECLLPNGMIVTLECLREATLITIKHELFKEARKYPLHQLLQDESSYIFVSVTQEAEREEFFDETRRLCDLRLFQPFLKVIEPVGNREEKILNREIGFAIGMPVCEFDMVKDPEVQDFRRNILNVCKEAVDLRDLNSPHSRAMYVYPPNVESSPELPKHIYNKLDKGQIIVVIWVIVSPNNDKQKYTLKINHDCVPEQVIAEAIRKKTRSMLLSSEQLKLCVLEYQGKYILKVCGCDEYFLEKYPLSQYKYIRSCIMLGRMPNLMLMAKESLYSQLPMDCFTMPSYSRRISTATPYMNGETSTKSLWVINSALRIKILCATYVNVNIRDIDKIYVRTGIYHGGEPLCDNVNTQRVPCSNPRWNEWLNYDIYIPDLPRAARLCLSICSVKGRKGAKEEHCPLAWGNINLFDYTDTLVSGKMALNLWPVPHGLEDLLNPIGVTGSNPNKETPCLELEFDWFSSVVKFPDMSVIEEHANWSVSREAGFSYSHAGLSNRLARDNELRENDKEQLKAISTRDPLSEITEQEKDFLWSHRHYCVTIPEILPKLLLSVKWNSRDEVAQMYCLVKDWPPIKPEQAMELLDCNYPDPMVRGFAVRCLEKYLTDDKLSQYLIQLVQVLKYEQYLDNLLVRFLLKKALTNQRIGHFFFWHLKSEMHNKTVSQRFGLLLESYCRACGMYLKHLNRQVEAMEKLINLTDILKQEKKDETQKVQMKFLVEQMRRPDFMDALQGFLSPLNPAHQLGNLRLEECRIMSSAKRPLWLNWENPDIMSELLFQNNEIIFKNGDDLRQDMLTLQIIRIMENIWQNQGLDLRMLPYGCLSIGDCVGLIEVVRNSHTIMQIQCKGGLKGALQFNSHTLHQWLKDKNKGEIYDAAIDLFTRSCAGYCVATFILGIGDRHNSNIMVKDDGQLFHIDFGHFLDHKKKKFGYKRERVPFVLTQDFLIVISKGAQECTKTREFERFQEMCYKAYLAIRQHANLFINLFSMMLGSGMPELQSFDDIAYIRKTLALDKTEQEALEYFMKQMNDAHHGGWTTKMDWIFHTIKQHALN
The nature of data set [2]: Clearance in mouse. To be noted: in vivo. The class given is ADME, organism-based.
The nature of data set [3]: Plasma protein binding in rat serum by equilibrium dialysis. As to conditions: read-out: PPB (converted). It is filed as ADME, cell-free. (In general: In equilibrium dialysis only unbound substance equilibrates across the membrane.)
The nature of data set [4]: Clearance in monkey. The class given is ADME, organism-based, Macaca mulatta. To be noted: rhesus monkey, in vivo.
Data set [5] concerns the target T1, Phosphatidylinositol 4,5-bisphosphate 3-kinase catalytic subunit beta isoform (Homo sapiens, UniProt P42338). The data set is described as follows: Inhibition of PI3Kbeta human in PTEN wild type HCC1954 cells assessed as reduction of AKT phosphorylation at Ser 473. The class given is cell-based.
The target of data set [6] is T2, Phosphatidylinositol 4,5-bisphosphate 3-kinase catalytic subunit delta isoform (Homo sapiens, UniProt O00329).
T2 sequence (O00329 whole entry): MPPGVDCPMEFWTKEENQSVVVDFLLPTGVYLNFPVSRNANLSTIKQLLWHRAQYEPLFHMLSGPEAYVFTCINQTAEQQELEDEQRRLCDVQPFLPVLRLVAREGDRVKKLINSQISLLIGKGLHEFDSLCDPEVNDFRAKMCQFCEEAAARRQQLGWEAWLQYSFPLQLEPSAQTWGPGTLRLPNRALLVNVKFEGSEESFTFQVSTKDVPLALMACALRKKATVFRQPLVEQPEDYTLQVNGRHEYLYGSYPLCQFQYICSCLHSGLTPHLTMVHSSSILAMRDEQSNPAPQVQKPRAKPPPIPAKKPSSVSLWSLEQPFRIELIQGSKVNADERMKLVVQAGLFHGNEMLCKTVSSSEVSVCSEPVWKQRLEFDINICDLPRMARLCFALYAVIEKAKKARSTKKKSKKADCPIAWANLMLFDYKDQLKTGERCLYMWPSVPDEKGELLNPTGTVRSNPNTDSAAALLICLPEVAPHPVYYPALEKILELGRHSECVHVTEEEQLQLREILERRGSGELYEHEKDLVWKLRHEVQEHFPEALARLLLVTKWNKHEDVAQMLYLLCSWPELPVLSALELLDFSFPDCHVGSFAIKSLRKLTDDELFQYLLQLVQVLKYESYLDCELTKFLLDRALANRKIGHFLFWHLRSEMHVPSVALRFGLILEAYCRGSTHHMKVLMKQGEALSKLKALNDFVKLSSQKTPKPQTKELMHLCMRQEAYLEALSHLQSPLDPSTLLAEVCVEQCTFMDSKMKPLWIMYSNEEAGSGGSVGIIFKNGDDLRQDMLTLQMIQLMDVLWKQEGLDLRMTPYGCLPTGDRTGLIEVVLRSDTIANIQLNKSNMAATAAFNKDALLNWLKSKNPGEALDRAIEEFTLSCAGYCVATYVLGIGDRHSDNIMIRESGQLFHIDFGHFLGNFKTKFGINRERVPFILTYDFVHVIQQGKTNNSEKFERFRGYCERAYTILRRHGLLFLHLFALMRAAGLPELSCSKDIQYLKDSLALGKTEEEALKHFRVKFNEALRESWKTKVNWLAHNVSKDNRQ
The data set is described as follows: Inhibition of PI3Kdelta (unknown origin).

Data set [7] in a line: Aqueous solubility of the compound. It is filed as physicochemical.
Data set [8] can be described thus: Plasma protein binding in mouse serum by equilibrium dialysis. It is filed as ADME, cell-free. As to conditions: read-out: PPB (converted).
A short description of data set [9]: Oral bioavailability mouse. It is filed as ADME, organism-based. As to conditions: in vivo.
Data set [10] is described as follows: Permeability of the compound across MDCK cells. It is filed as ADME, cell-based, Canis lupus familiaris. As to conditions: dog, read-out: permeability.
In data set [11] the target is T1, Phosphatidylinositol 4,5-bisphosphate 3-kinase catalytic subunit beta isoform. The data set is described as follows: Inhibition of PI3Kbeta (unknown origin).
Data set [12] shares this target. Briefly: Inhibition of PI3Kbeta human in PTEN-null MDA-MB-468 cells assessed as reduction of AKT phosphorylation at Ser 473 in presence of serum. It is filed as cell-based.
Data set [13] shares this target. Briefly: Inhibition of PI3Kbeta human in PTEN-null MDA-MB-468 cells assessed as reduction of AKT phosphorylation at Ser 473 in absence of serum. It is filed as cell-based.
Data set [14] in a line: Plasma protein binding in human serum by equilibrium dialysis. To be noted: read-out: PPB (converted). It is filed as ADME, cell-free.
The nature of data set [15]: Clearance in rat. The class given is ADME, organism-based. As to conditions: in vivo.
The target of data set [16] is Phosphatidylinositol 4,5-bisphosphate 3-kinase catalytic subunit gamma isoform (Homo sapiens, UniProt P48736). The data set is described as follows: Inhibition of PI3Kgamma (unknown origin).
Chain of Phosphatidylinositol 4,5-bisphosphate 3-kinase catalytic subunit gamma isoform (P48736 whole entry, canonical isoform): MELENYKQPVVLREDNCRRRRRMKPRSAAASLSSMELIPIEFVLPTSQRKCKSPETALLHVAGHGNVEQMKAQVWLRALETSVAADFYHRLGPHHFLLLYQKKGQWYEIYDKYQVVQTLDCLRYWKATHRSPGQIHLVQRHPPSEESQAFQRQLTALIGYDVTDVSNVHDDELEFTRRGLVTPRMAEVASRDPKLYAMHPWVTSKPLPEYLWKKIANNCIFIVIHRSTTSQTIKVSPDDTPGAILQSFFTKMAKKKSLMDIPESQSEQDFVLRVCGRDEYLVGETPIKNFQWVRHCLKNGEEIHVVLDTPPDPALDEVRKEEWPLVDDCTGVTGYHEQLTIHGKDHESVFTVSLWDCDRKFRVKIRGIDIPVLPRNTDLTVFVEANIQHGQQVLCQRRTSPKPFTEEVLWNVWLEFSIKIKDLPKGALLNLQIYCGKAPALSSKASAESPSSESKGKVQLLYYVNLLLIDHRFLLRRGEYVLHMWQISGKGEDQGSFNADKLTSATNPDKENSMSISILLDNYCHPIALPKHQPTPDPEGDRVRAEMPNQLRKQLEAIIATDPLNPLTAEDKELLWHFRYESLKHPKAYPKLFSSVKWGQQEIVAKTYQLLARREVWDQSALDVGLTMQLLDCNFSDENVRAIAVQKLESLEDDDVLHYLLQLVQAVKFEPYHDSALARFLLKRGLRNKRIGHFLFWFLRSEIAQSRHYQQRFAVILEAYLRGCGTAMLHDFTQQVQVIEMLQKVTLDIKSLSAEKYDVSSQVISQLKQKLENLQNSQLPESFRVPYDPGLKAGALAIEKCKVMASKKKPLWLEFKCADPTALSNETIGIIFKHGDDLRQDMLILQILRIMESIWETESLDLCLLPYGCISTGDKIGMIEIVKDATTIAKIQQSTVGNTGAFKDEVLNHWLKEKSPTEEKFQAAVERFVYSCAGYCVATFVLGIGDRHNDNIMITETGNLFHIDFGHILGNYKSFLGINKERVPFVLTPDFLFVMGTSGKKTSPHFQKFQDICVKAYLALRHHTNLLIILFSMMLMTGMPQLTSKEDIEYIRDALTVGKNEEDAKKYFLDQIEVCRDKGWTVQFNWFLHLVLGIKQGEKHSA
The subject of data set [17] is Mus musculus. The data set is described as follows: Dose normalized AUC in po dosed mouse. It is filed as ADME, organism-based. To be noted: in vivo.

T1 sequence (P42338 whole entry, canonical isoform): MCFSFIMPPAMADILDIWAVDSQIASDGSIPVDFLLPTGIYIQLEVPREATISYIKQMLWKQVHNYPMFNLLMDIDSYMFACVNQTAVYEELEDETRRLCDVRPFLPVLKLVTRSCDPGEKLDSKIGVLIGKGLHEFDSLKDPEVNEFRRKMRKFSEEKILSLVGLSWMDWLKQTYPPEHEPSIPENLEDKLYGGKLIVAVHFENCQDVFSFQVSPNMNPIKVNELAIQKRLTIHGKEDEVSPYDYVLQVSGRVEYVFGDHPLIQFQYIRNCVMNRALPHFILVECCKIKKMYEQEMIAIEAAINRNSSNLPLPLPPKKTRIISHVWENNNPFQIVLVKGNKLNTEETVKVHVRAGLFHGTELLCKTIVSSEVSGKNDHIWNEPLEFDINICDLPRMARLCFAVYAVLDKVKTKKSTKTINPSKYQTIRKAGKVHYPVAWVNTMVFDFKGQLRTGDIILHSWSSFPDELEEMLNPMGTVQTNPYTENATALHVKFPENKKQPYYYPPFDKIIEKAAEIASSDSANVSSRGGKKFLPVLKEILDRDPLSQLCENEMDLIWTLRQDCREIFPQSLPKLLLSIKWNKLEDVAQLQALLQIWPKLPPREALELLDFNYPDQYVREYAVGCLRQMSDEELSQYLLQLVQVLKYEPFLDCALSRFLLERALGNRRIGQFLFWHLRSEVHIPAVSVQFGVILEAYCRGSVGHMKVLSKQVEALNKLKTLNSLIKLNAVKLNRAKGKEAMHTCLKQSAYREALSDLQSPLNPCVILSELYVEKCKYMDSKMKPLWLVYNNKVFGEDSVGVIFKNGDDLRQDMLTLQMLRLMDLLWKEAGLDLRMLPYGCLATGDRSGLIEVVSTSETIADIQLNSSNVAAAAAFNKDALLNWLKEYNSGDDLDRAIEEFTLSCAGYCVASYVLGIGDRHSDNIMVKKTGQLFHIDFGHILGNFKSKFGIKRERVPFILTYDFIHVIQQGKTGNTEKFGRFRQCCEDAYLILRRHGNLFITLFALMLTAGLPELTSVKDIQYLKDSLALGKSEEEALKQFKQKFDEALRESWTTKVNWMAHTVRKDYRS

By IC50 is commonly meant the point on the concentration scale where inhibition reaches its midpoint. As a reminder, the clearance is the rate of elimination divided by the concentration. For orientation: EC50 means the concentration needed to bring the measured effect to its halfway point. Usually solubility stands for the concentration that dissolves in the medium under given conditions. As usually defined, the bioavailability is dose-corrected exposure relative to a reference, in per cent. Consider `Cc1nn2c(O)cc(N3CCOCC3)nc2c1Cc1cccc(C(F)(F)F)c1C`, for which the IC50 in [1] was 316 nM; in data set [6], 25.1 nM; in data set [11], 0.398 nM; in data set [16], 316 nM. Also, the clearance is 3.7 mL/min/kg in [2], 0.33 mL/min/kg in data set [4] and 6.5 mL/min/kg in data set [15]. The fraction unbound in data set [3], in [8] and in [14] was at most 0.001 throughout. In addition, the results for the EC50 in [5], in data set [12] and in data set [13] were above 15.8 µM, 1580 nM and 31.6 nM, respectively. Further, the solubility in data set [7] was 134 µM (≈ 54.5 µg/mL). Further, the bioavailability in [9] is 51%. Also, the Papp in data set [10] amounted to 75.3 ×10⁻⁶ cm/s. For the same compound, in data set [17], the AUC/dose is 2321 ng·h/mL/mg/kg.
